Measurements: US20190225985A1, “Enhancing Bacillus Thuringiensis CRY Insecticidal Activity With a Chaperone” (Universidad Nacional Autónoma de México, priority 2016, published 2019)
Read-outs that look alike come from different tables or passages of the source.

How the values were obtained:
[1] = tested on: M. sexta brush border membrane vesicles (BBMV); assay: Oligomerization of Cry1Ab with brush border membrane vesicles in the presence of Hsp90, Western blot; type: biochemical
Description: Oligomerization of Cry1Ab. Brush border membrane vesicles (BBMV) were prepared using M. sexta midgut tissues from third instar larvae by the magnesium precipitation method without protease inhibitors^21 and suspended in 50 mM Na2CO3, pH 9, and stored at −70° C. until used. The BBMV protein concentrations were determined with the Lowry DC protein assay (BioRad, Hercules, Calif.) using bovine serum albumin as a standard. Fifteen μg or 30 μg of Hsp90 were incubated with 1 μg Cry1Ab toxin or protoxin in the presence of Hsp90 buffer. Control samples contained Cry1Ab proteins without Hsp90. Cry1Ab oligomerization was analyzed after incubation of 1 μg of Cry1Ab toxin or protoxin with 10 μg of BBMV protein for 1 h at 37° C. in a total volume of […] alkaline buffer, pH 10.5. BBMV were recovered by a 30 min centrifugation at 60,000 rpm at 4° C. The pellet was washed once with 100 μl of alkaline buffer by centrifugation, and suspended in 60 μl of the same buffer. Laemmli sample buffer 4X was added and the sample was incubated three min at 50° C. Samples were separated in 8% SDS-PAGE, electro transferred to PVDF membrane and Cry1Ab proteins were detected by Westernblot as described above.

[2] = tested on: Plutella xylostella larvae; type: in vivo; settings: for effect of Hsp90 on toxicity: protoxin at about 10% mortality, increasing Hsp90, FIG. 1
Description: The hsp90 and hsp70 genes from the lepidopteran insect Plutella xylostella and the GroEL gene from Alcaligenes faecalis were cloned into an expression vector for production in E. coli cells. P. xylostella is a pest of cruciferous crops worldwide, is susceptible to Cry1A toxins and has evolved resistance to Cry1Ac and Cry1Ab in field conditions^18. To determine the effect of Hsp90, Hsp70 or GroEL on Cry1Ab and Cry1Ac toxicity, bioassays were performed against P. xylostella larvae using a protoxin concentration that would produce around 10% mortality in the presence of increasing amounts of Hsp90, Hsp70 or GroEL.
Bioassays were performed with 24 third instar larvae of P. xylostella using 24 wells plates. Larval diet was surface contaminated with different concentrations of Cry1A protoxin plus Hsp90 or Hsp70 or protoxin alone without any chaperone. The samples containing protoxin and Hsp90 were previously incubated for 30 min at 37° C. in Hsp90 buffer (1 mM Mg, 1 mMATP, in PBS1X). Each experiment was performed in triplicate (72 larvae per treatment). Mortality was assessed after 7 days. The statistical calculations (mean and standard deviation) and graphics were performed using the Microsoft Excel Program. Negative control diet was surface contaminated with the highest Hsp90 concentration without Cry1A protoxin to test the possible toxic effect of the protein or the buffer itself.
In the case where the LC50 was calculated, increasing concentrations of protoxin plus Hsp90 (in the protein relation indicated in the table) was used to surface contaminate diet in 24-well plates. These experiments were performed in triplicate. Mortality was assessed after 7 days and the effective dose was calculated using Probit analysis (Polo-PC LeOra Software).

Hsp70 = assay: ELISA binding assay of Hsp70 to Cry toxins; parameters: species or system Plutella xylostella; settings: coated protoxin, different concentrations of Hsp70, FIG. 5
Description: (§1) The binding of Hsp90 or Hsp70 to Cry1Ab and Cry1AbMod protoxins was analyzed by ELISA binding assays. […] More specifically, 50 μl of 40 nM of each protoxin in binding buffer (100 mM carbonate pH 9.5) was used to coat ELISA 96 well plates. ELISA plates were incubated overnight at 4° C. After removing the protoxin solution, the plate was blocked with blocking-buffer (1% BSA in PBS 1X) for 1 hr at room temperature. […] The plate was washed three times with washing buffer (PBS 1X) and then 50 μl of a 1/10,000 dilution of anti-polyHistidine-Peroxidase conjugate (Sigma-Aldrich) was added to each well and incubated for 1 hr at 30° C. The reaction was developed with 50 μl of ortophenylenediamine in a substrate buffer (100 mM K3PO4; pH 5) in a final concentration of 1 mg/ml and […] of peroxide oxide. The reaction was stopped by adding 25 μl of HCl, 6N. The plates were read on microtiter plate reader at OD 490 nm.
(§2) Data represent means of 8 wells and each experiment was repeated two times. The statistical calculations (mean and standard deviation) and graphics were performed using the Microsoft Excel Program.

Hsp90 = assay: ELISA binding assay of Hsp90 to Cry toxins; parameters: species or system Plutella xylostella; settings: for binding of Hsp90 to toxin (ELISA): coated protoxin, serial dilutions of Hsp90, FIG. 4A-E
Description: as §1, §2

[3] = tested on: Plutella xylostella larvae; settings: soluble protoxin; taken from reference 16; cited from earlier work
[4] = excess of 500 μg per well of Hsp90

Chain of Hsp90 (as listed by the source): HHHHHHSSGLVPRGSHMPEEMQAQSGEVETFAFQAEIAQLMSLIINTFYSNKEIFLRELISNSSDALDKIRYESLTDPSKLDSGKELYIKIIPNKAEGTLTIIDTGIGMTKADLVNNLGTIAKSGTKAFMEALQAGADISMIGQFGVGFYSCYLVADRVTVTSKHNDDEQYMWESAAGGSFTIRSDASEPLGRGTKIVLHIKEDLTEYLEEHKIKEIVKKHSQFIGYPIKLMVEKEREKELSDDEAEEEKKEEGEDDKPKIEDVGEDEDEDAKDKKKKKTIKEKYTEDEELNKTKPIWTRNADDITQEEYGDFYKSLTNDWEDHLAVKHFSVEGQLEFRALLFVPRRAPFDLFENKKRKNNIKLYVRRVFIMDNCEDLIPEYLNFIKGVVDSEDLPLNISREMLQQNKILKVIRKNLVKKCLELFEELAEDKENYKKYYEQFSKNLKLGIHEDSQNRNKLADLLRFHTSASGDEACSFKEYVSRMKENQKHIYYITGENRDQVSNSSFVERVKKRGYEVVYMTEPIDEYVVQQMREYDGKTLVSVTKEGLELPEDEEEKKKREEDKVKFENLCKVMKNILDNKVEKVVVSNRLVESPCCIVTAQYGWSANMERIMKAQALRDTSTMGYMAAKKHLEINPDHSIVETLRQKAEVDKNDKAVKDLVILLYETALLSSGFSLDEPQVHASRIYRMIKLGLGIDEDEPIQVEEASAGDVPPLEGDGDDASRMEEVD
Chain of Hsp70 (as listed by the source): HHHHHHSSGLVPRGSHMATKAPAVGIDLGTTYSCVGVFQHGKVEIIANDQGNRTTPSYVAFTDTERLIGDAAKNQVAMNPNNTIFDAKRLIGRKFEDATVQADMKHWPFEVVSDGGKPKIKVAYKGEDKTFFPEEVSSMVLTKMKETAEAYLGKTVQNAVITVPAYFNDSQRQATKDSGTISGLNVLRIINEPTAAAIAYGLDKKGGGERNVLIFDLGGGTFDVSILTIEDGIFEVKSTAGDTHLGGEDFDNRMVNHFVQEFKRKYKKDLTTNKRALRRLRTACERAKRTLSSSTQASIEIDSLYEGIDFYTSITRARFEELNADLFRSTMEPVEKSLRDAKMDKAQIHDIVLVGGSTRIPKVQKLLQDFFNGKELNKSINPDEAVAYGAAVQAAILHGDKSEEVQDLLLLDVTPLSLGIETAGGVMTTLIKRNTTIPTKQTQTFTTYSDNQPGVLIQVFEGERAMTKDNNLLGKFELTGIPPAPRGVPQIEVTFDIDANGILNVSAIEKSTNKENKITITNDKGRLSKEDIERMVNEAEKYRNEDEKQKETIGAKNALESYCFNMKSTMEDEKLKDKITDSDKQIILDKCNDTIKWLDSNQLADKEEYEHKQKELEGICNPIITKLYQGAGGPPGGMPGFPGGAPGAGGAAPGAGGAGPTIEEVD

Substance | yield of the 250 kDa Cry1Ab oligomer ([1]; from Cry1Ab protoxin) | yield of the 250 kDa Cry1Ab oligomer ([1]; from Cry1Ab toxin) | mortality ([2]; 200 ng per well of Hsp90) [%] | mortality [2, 4] [%] | effect of Hsp90 on toxicity [2] | binding of Hsp70 to toxin (ELISA) (Hsp70) | binding of Hsp90 to toxin (ELISA) (Hsp90) | LC50 [3] [ng/well] | mortality ([2]; 100 ng per well of Hsp70) [%] | mortality ([2]; GroEL 100 ng per well) [%] | mortality ([2]; excess of 200 μg per well of GroEL) [%] | mortality ([2]; excess of 200 μg per well of Hsp70) [%] | effect of GroEL on toxicity ([2]; increasing GroEL, FIG. 3) | effect of Hsp70 on toxicity ([2]; increasing Hsp70, FIG. 2) | binding of Hsp90 to Cry1Ac (Hsp90; 100 nM Hsp90, absence of ATP (FIG. 4F lane 2))
Cry1Ab | significantly enhanced | significantly enhanced | 80 | 100 | enhanced in an Hsp90 concentration dependent manner | bound | bound | 4.69 |  |  |  |  |  |  | 
Cry1Ac |  |  | 80 | 100 | enhanced in an Hsp90 concentration dependent manner | bound | bound | 0.71 | 80 | 80 | 100 | 100 | enhanced in concentration dependent manner | enhanced in an Hsp70 concentration dependent manner | significantly reduced
